Tested on: 817829-284-R-J1-PDC complex spheroid viability
Test: Anticancer human tumor 817829-284-R-J1-PDC patient-derived colon adenocarcinoma cell line growth inhibition [POLQ]
Details: for IC50: curve of first compound; for viability, T/C: stronger effect = lower value
How it was run: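 Complex spheroid viability model combining PDC tumour cells with endothelial (HUVEC) and MSC stromal cells. Novobiocin, ART-558 or RP6685 were tested singly and in combination with standard and investigational anticancer drugs. Each was titrated in half-log steps from near clinical Cmax, or from 10 microM where Cmax was unknown.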

[1] = second compound 0.0316 µM, first compound 0.0316 µM
[2] = second compound 0.0316 µM, first compound 0.1 µM
[3] = second compound 0.0316 µM, first compound 0.316 µM
[4] = second compound 0.0316 µM, first compound 1 µM
[5] = second compound 0.0316 µM, first compound 3.16 µM
[6] = second compound 0.0316 µM, first compound 10 µM
[7] = second compound 0.1 µM, first compound 0.0316 µM
[8] = second compound 0.1 µM, first compound 0.1 µM
[9] = second compound 0.1 µM, first compound 0.316 µM
[10] = second compound 0.1 µM, first compound 1 µM
[11] = second compound 0.1 µM, first compound 3.16 µM
[12] = second compound 0.1 µM, first compound 10 µM
[13] = second compound 0.316 µM, first compound 0.0316 µM
[14] = second compound 0.316 µM, first compound 0.1 µM
[15] = second compound 0.316 µM, first compound 0.316 µM
[16] = second compound 0.316 µM, first compound 1 µM
[17] = second compound 0.316 µM, first compound 3.16 µM
[18] = second compound 0.316 µM, first compound 10 µM
[19] = second compound 1 µM, first compound 0.0316 µM
[20] = second compound 1 µM, first compound 0.1 µM
[21] = second compound 1 µM, first compound 0.316 µM
[22] = second compound 1 µM, first compound 1 µM
[23] = second compound 1 µM, first compound 3.16 µM
[24] = second compound 1 µM, first compound 10 µM
[25] = second compound 3.16 µM, first compound 0.0316 µM
[26] = second compound 3.16 µM, first compound 0.1 µM
[27] = second compound 3.16 µM, first compound 0.316 µM
[28] = second compound 3.16 µM, first compound 1 µM
[29] = second compound 3.16 µM, first compound 3.16 µM
[30] = second compound 3.16 µM, first compound 10 µM
[31] = second compound 10 µM, first compound 0.0316 µM
[32] = second compound 10 µM, first compound 0.1 µM
[33] = second compound 10 µM, first compound 0.316 µM
[34] = second compound 10 µM, first compound 1 µM
[35] = second compound 10 µM, first compound 3.16 µM
[36] = second compound 10 µM, first compound 10 µM
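Note: spheroids exposed to compounds for 7 days.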
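Throughout, for viability, T/C: 100% = DMSO vehicle-treated spheroids.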

Compound: CC(C)n1c(=O)n(C)c2cnc3cc(F)c(-c4ccc(OCCCN5CCCCC5)nc4)cc3c21 + COC1C(OC(N)=O)C(O)C(Oc2ccc3c(O)c(NC(=O)c4ccc(O)c(CC=C(C)C)c4)c(=O)oc3c2C)OC1(C)C
- IC50 (second compound 0.0316 µM): > 10 µM
- IC50 (second compound 0.1 µM): 7.06 µM
- IC50 (second compound 0.316 µM): > 10 µM
- IC50 (second compound 1 µM): 4.94 µM
- IC50 (second compound 3.16 µM): 4.97 µM
- IC50 (second compound 10 µM): 5.05 µM
- viability, T/C [1]: 88.5%
- viability, T/C [2]: 95.9%
- viability, T/C [3]: 61.4%
- viability, T/C [4]: 93.1%
- viability, T/C [5]: 84.5%
- viability, T/C [6]: 52.6%
- viability, T/C [7]: 74.4%
- viability, T/C [8]: 82.5%
- viability, T/C [9]: 129%
- viability, T/C [10]: 102%
- viability, T/C [11]: 72.7%
- viability, T/C [12]: 40.2%
- viability, T/C [13]: 78.5%
- viability, T/C [14]: 96.5%
- viability, T/C [15]: 86.3%
- viability, T/C [16]: 93%
- viability, T/C [17]: 71.4%
- viability, T/C [18]: 55.8%
- viability, T/C [19]: 102%
- viability, T/C [20]: 102%
- viability, T/C [21]: 84%
- viability, T/C [22]: 81.1%
- viability, T/C [23]: 62.5%
- viability, T/C [24]: 31.8%
- viability, T/C [25]: 81.9%
- viability, T/C [26]: 87.8%
- viability, T/C [27]: 78.6%
- viability, T/C [28]: 85.8%
- viability, T/C [29]: 71.3%
- viability, T/C [30]: 16.9%
- viability, T/C [31]: 80.5%
- viability, T/C [32]: 65.4%
- viability, T/C [33]: 62.1%
- viability, T/C [34]: 81.4%
- viability, T/C [35]: 74.4%
- viability, T/C [36]: 16.9%

Compound: CCc1cc2c(N3CCc4c(cc(Cn5ccnc5)cc4-c4cn(C)nc4C(F)(F)F)C3=O)ccnc2c(OC)n1 + COC1C(OC(N)=O)C(O)C(Oc2ccc3c(O)c(NC(=O)c4ccc(O)c(CC=C(C)C)c4)c(=O)oc3c2C)OC1(C)C
- IC50 (second compound 0.0316 µM): 2.92 µM
- IC50 (second compound 0.1 µM): 3.3 µM
- IC50 (second compound 0.316 µM): 5.17 µM
- IC50 (second compound 1 µM): 1.58 µM
- IC50 (second compound 3.16 µM): 6.94 µM
- IC50 (second compound 10 µM): 4.32 µM
- viability, T/C [1]: 79%
- viability, T/C [2]: 80.2%
- viability, T/C [3]: 84.7%
- viability, T/C [4]: 70%
- viability, T/C [5]: 49%
- viability, T/C [6]: 32.2%
- viability, T/C [7]: 90.3%
- viability, T/C [8]: 94%
- viability, T/C [9]: 83.2%
- viability, T/C [10]: 70.3%
- viability, T/C [11]: 51.6%
- viability, T/C [12]: 29.7%
- viability, T/C [13]: 82.8%
- viability, T/C [14]: 98.2%
- viability, T/C [15]: 77.7%
- viability, T/C [16]: 97.5%
- viability, T/C [17]: 57.8%
- viability, T/C [18]: 39.5%
- viability, T/C [19]: 95.7%
- viability, T/C [20]: 73%
- viability, T/C [21]: 97.3%
- viability, T/C [22]: 53.3%
- viability, T/C [23]: 54.9%
- viability, T/C [24]: 35.2%
- viability, T/C [25]: 72.8%
- viability, T/C [26]: 83.7%
- viability, T/C [27]: 89.4%
- viability, T/C [28]: 68.3%
- viability, T/C [29]: 63.7%
- viability, T/C [30]: 44.2%
- viability, T/C [31]: 104%
- viability, T/C [32]: 82.2%
- viability, T/C [33]: 75.2%
- viability, T/C [34]: 75.2%
- viability, T/C [35]: 57%
- viability, T/C [36]: 35.2%

Compound: COc1cc2cc(C(=O)CCC(=O)O)sc2cc1OC + COC1C(OC(N)=O)C(O)C(Oc2ccc3c(O)c(NC(=O)c4ccc(O)c(CC=C(C)C)c4)c(=O)oc3c2C)OC1(C)C
- IC50 (second compound 0.0316 µM): > 10 µM
- IC50 (second compound 0.1 µM): > 10 µM
- IC50 (second compound 0.316 µM): > 10 µM
- IC50 (second compound 1 µM): > 10 µM
- IC50 (second compound 3.16 µM): > 10 µM
- IC50 (second compound 10 µM): > 10 µM
- viability, T/C [1]: 81.3%
- viability, T/C [2]: 96.4%
- viability, T/C [3]: 83.3%
- viability, T/C [4]: 85.8%
- viability, T/C [5]: 94.6%
- viability, T/C [6]: 85.6%
- viability, T/C [7]: 97.8%
- viability, T/C [8]: 104%
- viability, T/C [9]: 89.7%
- viability, T/C [10]: 98.2%
- viability, T/C [11]: 49.2%
- viability, T/C [12]: 102%
- viability, T/C [13]: 75.7%
- viability, T/C [14]: 94.6%
- viability, T/C [15]: 88.9%
- viability, T/C [16]: 94.6%
- viability, T/C [17]: 112%
- viability, T/C [18]: 66.7%
- viability, T/C [19]: 88.2%
- viability, T/C [20]: 109%
- viability, T/C [21]: 71.1%
- viability, T/C [22]: 105%
- viability, T/C [23]: 83.9%
- viability, T/C [24]: 86.1%
- viability, T/C [25]: 85.5%
- viability, T/C [26]: 108%
- viability, T/C [27]: 98.7%
- viability, T/C [28]: 99.5%
- viability, T/C [29]: 110%
- viability, T/C [30]: 61.3%
- viability, T/C [31]: 106%
- viability, T/C [32]: 71.2%
- viability, T/C [33]: 90.9%
- viability, T/C [34]: 80.8%
- viability, T/C [35]: 117%
- viability, T/C [36]: 74.1%

From PubChem BioAssay AID1963839 (Molecular Pharmacology Branch, DTP, NCI, 2024)
